Measurements reported in patent US11573241B2, “Total cellular iron as a marker of cancer stem cells and uses thereof” (Institut National de la Sante et de la Recherche Medicale …, priority 2016, dated 2023).
Entries after “also recorded” stand apart in the source; their conditions may differ.

Legend:
[1] = test system: cells from treated PDX 1 and 2; assay: Limiting dilution assay, tumor-seeding capacity (ELDA); type: in vivo, NOD/SCID mice; settings: re-implantation into secondary mice
From the text: Limiting dilution assay. Cells from 4-week treated mice were re-implanted into one to four secondary NOD/SCID mice with injection of 10, 50, 500 or 5000 cells for each treated tumor to functionally evaluate the proportion of residual CSCs in each treatment group (Unt., Doc, Sal, AM5) for the PDX 1 and 2. Each mouse that developed a tumor reaching a size of 10 mm was considered as a tumor-bearing mouse.
Estimation of number of CSCs in vivo. The number of mammary gland outgrowths obtained in a fat pad after cell re-implantation is currently used to evaluate the number of stem cells able to repopulate this fat pad. It is based on self-renewal and differentiation abilities, two hallmarks of stem cells. In the same manner, estimation of the number of CSCs can be obtained from tumor outgrowth data collected after limited dilution re-implantation of each group of treatments, based on tumor-initiating capacities of CSCs. For calculation, an online tool is available using Extreme Limiting Dilution Analysis (ELDA) (http://bioinf.wehi.edu.au/software/elda/) for limiting dilution analysis based on the Poisson single-hit model according to the number of outgrowths observed and the number of pat pad re-implanted for each cell dilution.

[2] = test system: non-CSC (HMLER CD24^high ID2) cells; assay: Immunoblotting of iron homeostasis regulatory proteins; type: cell-based, human
Description: (§1) Immunoblotting. Cells were treated as indicated, then washed twice with PBS and lysed with 2× Laemmli buffer. Cell extracts were heated at 95° C. for 5 min, sheared through a 26-gauge needle and quantified with a Nanodrop 2000 (Thermo Scientific). Protein lysates (˜100 μg) were resolved by SDS-PAGE electrophoresis and transferred onto PVDF membranes (Amersham). Membranes were blocked with 5% BSA, 0.1% Tween-20/TBS for 1 h. The blots were then probed with the relevant primary antibodies in 5% BSA, 0.1% Tween-20/TBS at 4° C. overnight with gentle agitation. Membranes were washed with 0.1% Tween-20/TBS for 30 min and were incubated with secondary antibodies for 1 h at RT. Antigens were detected by ECL (Amersham). Imaging was performed using a ChemiDoc™ XRS+ System (Biorad).

HMLER CD24^low cells [3] = assay: Annexin V/PI assay; type: cell-based, human; settings: 0.5 μM, 72 h
Description: (§2) Annexin V/PI assay. Cells were treated as indicated. After treatment, cell death was quantified using Annexin V-FITC/Propidium Iodide (PI) assay according to the manufacturer's protocol (FITC Annexin V Apoptosis Detection Kit II, 556570, BD Pharmingen™) and analyzed by a LSRFortessa™ flow cytometer (BD Bioscience, San Jose, Calif.). The data were processed using Cell Quest software (BD Biosciences).

iCSCA2 cells = assay: Immunoblotting of iron homeostasis regulatory proteins; type: cell-based
Description: as §1

HMLER CD24^low cells [4] = assay: Lysosomal membrane permeabilization assay; type: cell-based, human; settings: 48 h
Description: Lysosomal membrane permeabilization assay. Lysosomal membrane permeabilization (LMP) was assessed by monitoring the release of FITC-Dextran (FD10S, 10 kDa, Sigma) from lysosomes. In brief, cells were incubated with 1 mg/mL FITC-Dextran for 2 h at 37° C. Cells were washed, chased with culture medium for 2 h and treated as indicated for 48 h or with CQ (positive control) for 3 h. Cells were then fixed with 2% formaldehyde/PBS, washed with PBS, mounted and acquired with a 60×APO TIRF oil immersion objective of Nipkow Spinning Disk confocal system.

HMLER CD24^low cells [5] = assay: Immunoblotting of iron homeostasis regulatory proteins; type: cell-based, human; settings: for level of autophagy marker protein LC3-II: 24 h; for levels of IRP2, TfR and ferritin: immunoblotting
[6] = test system: U2OS, HMLER CD24^low, and iCSCL-10A2 cells; assay: Lysosomal ROS in cells; type: cell-based; settings: all cell lines
iCSCL-10A2 cells = assay: Annexin V/PI assay; type: cell-based; settings: 0.5 μM, 72 h
Description: as §2

[7] = test system: HMLER CD24^low and iCSCL-10A2 cells; assay: Intracellular GSH level quantification; type: cell-based; settings: 0.5 μM
Description: Intracellular GSH level quantification. Cells were treated with Sal or AM5 (0.5 μM) as indicated, then harvested and counted. The intracellular GSH level was measured using a commercial kit (ab205811, Abcam) according to the manufacturer's protocol.

HMLER CD24^low cells [8] = assay: Localization of intracellular iron(II) with RhoNox-1; type: cell-based, human; settings: 0.5 μM, 48 h; for lysotracker-positive vesicles colocalized with the RhoNox-1 probe: fixed cells
Description: Localization of intracellular iron(II). RhoNox-1 was synthesized according to the original procedure described in […]. Cells were washed with 1× Hank's Balanced Salt Solution (HBSS, 14025-092, Life technologies) three times, then incubated with 5 μM of RhoNox-1/HBSS for 1 h at 37° C., 5% CO2 and washed with HBSS. Co-staining was performed by adding 100 nM LysoTracker Deep Red and Hoechst 33342 (H1399, Sigma, final concentration of 1 μg/mL) in HBSS. Experiments were performed with a 60×APO TIRF oil immersion objective of Nipkow Spinning Disk confocal system.

[9] = test system: HMLER CD24^low and iCSCL-10A2 cells; assay: Lipid ROS measurements (Bodipy-C11); type: cell-based; settings: 0.5 μM, 48 h
Description: Lipid ROS measurements. Cells were treated with Sal or AM5 (0.5 μM) as indicated. Then, cells were trypsinized and washed with PBS. Subsequently, cells were incubated with Bodipy-C11® (D3861, Thermo Fisher Scientific, 2 μM) at 37° C. for 60 min. Next, cells were washed twice with PBS. […] The data were processed using Cell Quest software (BD Biosciences) and FlowJo software (FLOWJO, LLC). For cell imaging, cells were treated as indicated in the main figure (Bodipy-C11®, 1 μM, 1 h), then fixed with formaldehyde (2% in PBS, 12 min) and analyzed by fluorescence microscopy (ex. 488 nm).

Row | Compound | tumor-seeding capacity of tumor cells treated in vivo [1] | level of ferritin [2] | response of IRP2 and TfR levels [2] | form of cell death (HMLER CD24^low cells [3]) | levels of IRP2, TfR and ferritin (iCSCA2 cells) | lysosomal membrane permeabilization (release of lysosomal dextran) (HMLER CD24^low cells [4]) | level of autophagy marker protein LC3-II (HMLER CD24^low cells [5]) | levels of IRP2, TfR and ferritin (HMLER CD24^low cells [5]) | lysosomal ROS [6] | form of cell death (iCSCL-10A2 cells) | endogenous levels of GSH [7] | staining of iron(II) (subcellular localization) (HMLER CD24^low cells [8]) | lysotracker-positive vesicles colocalized with the RhoNox-1 probe (HMLER CD24^low cells [8]) | lipid ROS (Bodipy-C11 staining) [9]
1 | C#CCN[C@@H]1C=C[C@]2(O[C@H]([C@@H](CC)C(=O)[C@@H](C)[C@@H](O)[C@H](C)C3O[C@@H](C(CC)C(=O)O)CC[C@@H]3C)[C@@H](C)C[C@H]2C)O[C@@]12CC[C@@](C)([C@H]1CC[C@](O)(CC)[C@H](C)O1)O2 (stereo partly shown) [AM5, Sal-Propargylamine] | decreased tumor-seeding capacity; also recorded: more potent than both Sal and Doc | reduced the level of ferritin | did not observe a response characteristic of a cytosolic depletion of iron | ferroptosis | response characteristic of a cytosolic depletion of iron | induced a permeabilization of the lysosomal membrane | increased | increased levels of iron-responsive element-binding protein 2 (IRP2) and transferrin receptor (TfR) along with reduced levels of ferritin | significant increase in lysosomal ROS | ferroptosis | diminution of endogenous levels of the ROS scavenger glutathione (GSH) | restricted to the lysosomal compartment | approximately 80% | presence of lipid peroxidation
2 | CC[C@@H](C(=O)[C@@H](C)[C@@H](O)[C@H](C)[C@@H]1O[C@@H]([C@@H](CC)C(=O)O)CC[C@@H]1C)[C@H]1O[C@]2(C=C[C@@H](O)[C@]3(CC[C@@](C)([C@H]4CC[C@](O)(CC)[C@H](C)O4)O3)O2)[C@H](C)C[C@@H]1C [Sal, salinomycin, reference compound] | decreased tumor-seeding capacity | reduced the level of ferritin | did not observe a response characteristic of a cytosolic depletion of iron | ferroptosis | response characteristic of a cytosolic depletion of iron | induced a permeabilization of the lysosomal membrane | increased | increased levels of iron-responsive element-binding protein 2 (IRP2) and transferrin receptor (TfR) along with reduced levels of ferritin | significant increase in lysosomal ROS | ferroptosis | diminution of endogenous levels of the ROS scavenger glutathione (GSH) | restricted to the lysosomal compartment | approximately 80% | presence of lipid peroxidation
